Source: patent US20230103774A1, “USE OF KAURANE COMPOUNDS IN PREPARATION OF DRUG FOR PREVENTION AND TREATMENT OF SEPSIS AND MULTIPLE ORGAN DAMAGE” (KEY-PHARMA BIOMEDICAL INC., priority 2020, published 2023)
“Also recorded” adds a separate entry of the source.

Key:
[1] = test system: macrophage M1 and M2 in cardiac tissue; assay: ROS and M1/M2 macrophages in heart of septic mice; type: in vivo
solubility = type: physicochemical; conditions: sodium salt versus compound A
mitochondria = assay: mitochondrial protection during sepsis; conditions: administration during sepsis
LPS-induced septic mice [2] = assay: renal function of LPS-induced septic mice (plasma BUN, Crea, histopathology); type: in vivo
Source text: The prepared plasma of each group was taken to determine the levels of urea nitrogen (BUN) and creatinine (Crea) in plasma by a microplate reader following the manufacture's instruction.

LPS-induced septic mice [3] = assay: cardiac function of LPS-induced septic mice by echocardiography (Vevo2100); type: in vivo; conditions: for ejection fraction (EF) / fractional shortening (FS): 6 h after i.p. LPS, versus LPS group
Source text: Six hours after intraperitoneal injection of LPS, mice in each group were weighed and anesthetized, and the cardiac function of the mice was detected by Vevo2100 imaging system. The mice were put into the recumbent position and fixed on a constant temperature heating plate under heart rate of 400-500 times per minute. The limbs were fixed on the four metal poles with tape. The ultrasound probe was placed in the left thoracic region of the mouse, and the short axis of the parasternal left ventricle was obtained by 2D ultrasound. The left ventricular motion was recorded at the papillary muscle level by M-ultrasound, and heart rate (HR), left ventricular systolic diameter (LVID: FS), left ventricular diastolic diameter (LVID: d), left ventricular systolic diameter (LVID: FS), left ventricular diastolic diameter (LVID: Fd), and left ventricular diastolic […] thickness (LVPWF: FdF) were measured. Using Vevo2100 small animal ultrasound system software to process and analyze the acquired images. Determination of mouse plasma myocardial injury indexes (LDH and CK)
Ejection Fractions (EF), refers to the percentage of cardiac stroke volume in ventricular end-diastolic volume, which is an indicator of myocardial contractility. […] The left ventricular short-axis shortening rate (fractional shortening, FS) refers to the ratio of the inner diameter of the ventricle at the end systole to the inner diameter of the ventricular end diastole, and also reflects the systolic function of the heart (FS=(left ventricular end-diastolic diameter (LVDd)−Left ventricular end-systolic diameter (LVDs))/left ventricular end-diastolic diameter×100%).

[4] = test system: primary peritoneal macrophages; assay: flow cytometry of M1/M2 primary peritoneal macrophages of LPS induced septic mice; type: in vivo; conditions: 6 hours after 20 mg/kg LPS i.p., versus LPS group
Method: This example illustrates the effect of compound A on macrophage polarization. • (1) Grouping of experimental animals: 6-8 week old Balb/c male mice were randomly divided into 4 groups after one week of adaptive feeding, 10 mice in each group, namely the Control group, the LPS group, the compound A group and the dexamethasone group. The LPS group, compound A group and dexamethasone group were given intraperitoneally injection of a 20 mg/kg of LPS. […]

[5] = test system: white blood cells, neutrophils and monocytes; assay: white blood cells, neutrophils and monocytes in LPS induced septic mice; type: in vivo; conditions: versus LPS group
LPS-induced septic mice [6] = assay: liver function of LPS-induced septic mice (plasma ALT, AST, SOD, histopathology); type: in vivo
Source text: The prepared plasma of each group was taken to determine the levels of alanine aminotransferase (ALT), aspartate aminotransferase (AST) and superoxide dismutase (SOD) in plasma by a microplate reader according to the manufacture's instruction.

[7] = test system: LPS-induced septic Balb/C mice; assay: mortality of LPS-induced septic Balb/C mice after intraperitoneal compound A; type: in vivo; conditions: for improved the survival rate of mice: P<0.01
Method: This example mainly observes the effect of intraperitoneal injection of different doses of Compound A on the mortality of LPS-septic Balb/C mice.
To observe the effect of intraperitoneal injection of different doses of compound A on the mortality of LPS-induced sepsis mice.
The mice were randomly divided into 6 groups: • (1) Control group: intraperitoneal injection of physiological saline (solvent) (0.1 ml/10 g) once a day for three consecutive days, 1 hour after intraperitoneal injection on the third day, intraperitoneal injection of physiological saline (0.2 ml/10 g); • (2) LPS group: intraperitoneal injection of saline (0.1 ml/10 g), 1 time/d for 3 consecutive days, 1 hour after intraperitoneal injection on the third day, intraperitoneal injection of LPS (20 mg/kg, 0.1 ml/10 g). • (3) Compound A (5 mg/kg)+LPS group: intraperitoneal injection of compound A (5 mg/kg, 0.1 ml/10 g), 1 time/d for 3 consecutive days, 1 hour after intraperitoneal injection on the third day, intraperitoneal injection LPS (20 mg/kg, 0.1 ml/10 g). • (4) Compound A (10 mg/kg)+LPS group: intraperitoneal injection of compound A (10 mg/kg, 0.1 ml/10 g), 1 time/d for 3 consecutive days, 1 hour after intraperitoneal injection on the third day, intraperitoneal injection LPS (20 mg/kg, 0.1 ml/10 g). • (5) Compound A (20 mg/kg)+LPS group: intraperitoneal injection of compound A (20 mg/kg, 0.1 ml/10 g), 1 time/d for 3 consecutive days, 1 hour after intraperitoneal injection on the third day, intraperitoneal injection LPS (20 mg/kg, 0.1 ml/10 g). • (6) Compound A (60 mg/kg)+LPS group: intraperitoneal injection of compound A (60 mg/kg, 0.1 ml/10 g), 1 time/d for 3 consecutive days, 1 hour after intraperitoneal injection on the third day, intraperitoneal injection LPS (20 mg/kg, 0.1 ml/10 g).
After intraperitoneal injection of LPS, the survival of mice in each group was observed every 12 h for six consecutive days.
Based on the previously reports, the dose of 5 mg/kg for adults is an acceptable and safe dose, and the maximum blood concentration reaches 20 μM, which is equivalent to 45 mg/kg in mice. Accordingly, 10 mg/kg STV-Na was employed for further studies.

[8] = dose of 5 mg/kg for adults; cited from earlier work
TNF-α, IL-6 and IL-1β = assay: pro-inflammatory cytokine expression in plasma of septic mice; type: in vivo; conditions: 6 h after intraperitoneal injection of LPS; different doses
[9] = test system: lactate dehydrogenase (LDH) and creatine kinase (CK) in plasma; assay: plasma myocardial injury indexes LDH and CK; type: in vivo; conditions: LPS-induced septic mice, versus LPS group, p<0.01
Method: Serum lactate dehydrogenase (LDH) and creatine kinase (CK) were determined according to the istructions provided by Nanjing Jiancheng Biotechnology Co., Ltd.

[10] = test system: Animals that survived sepsis; assay: fibrosis of affected organs after recovery from sepsis; type: in vivo
septic lung tissues = assay: acute lung injury caused by sepsis (lung tissue, blood oxygen saturation); type: in vivo; conditions: septic mice
HIF-1α = HIF-1α expression after LPS and macrophage regulation
[11] = test system: LPS-induced lung injury mice; assay: lung function by whole body plethysmography (Penh, EF50, TV); type: in vivo
Method: The lung function of each group of mice was measured at 6 h. Mice were placed in a closed chamber of a whole body plethysmograph (BUXCO, USA), and the plethysmographic chamber was connected to a sensor. […] In this experiment, we used Buxco's pulmonary function testing system to measure and record the 50% tidal expiratory volume, tidal volume, and changes in airway responsiveness in each group of mice by whole body plethysmography to assess lung function. This method offers a real-time lung function of mice under non-invasive conditions. Penh is a pulmonary function parameter related to airway resistance and intrapleural pressure, and Penh is used as an index to evaluate airway response.

[12] = under certain conditions in vitro; cited from earlier work
LPS-induced septic mice [13] = assay: spleen/body weight ratio after LPS; type: in vivo; conditions: even lower than that of the Control group
Method: The fur color, consciousness, physical activity, diet, etc. of the mice were observed, and the heart, liver, spleen, lung and kidney of the mice were weighed 6 hours after intraperitoneal injection of LPS.

[14] = pretreated septic mice versus LPS group
[15] = 6 hours after LPS injection, versus LPS group, p<0.01

C[C@@]12CC[C@@H]3[C@@](CC[C@H]4[C@@]3(C)CCC[C@@]4(C)C(=O)O)(CC1=O)C2 [Compound A, (4α, 8β, 13 β)-13-METHYL-16-OXO-17-Norkauran-18-OIC acid]
level of ROS in heart [1]: inhibited
biomarkers of M1 and M2 macrophages and number of macrophages in cardiac tissue ([1]; M1: IL-1β, McP1, CD11c, M2: Ym1, CD206): significantly decreased
solubility (solubility): better solubility
cytochrome C release (mitochondria): reduce
inflammation cytokine TNF-α and IL-1β (mitochondria): inhibiting
mitochondrial membrane potential (mitochondria): increase
number of mitochondria (mitochondria): increase
production of superoxide such as NO in cells (mitochondria): reduce
creatinine (Crea) in plasma (LPS-induced septic mice [2]; LPS-induced septic mice): significantly reduced
urea nitrogen (BUN) in plasma (LPS-induced septic mice [2]; LPS-induced septic mice): significantly decreased
urea nitrogen (BUN) in plasma (LPS-induced septic mice [2]; LPS-induced septic mice, listed as compound A): significantly reduced
lesions in the glomerulus and renal tubules (histopathological staining) (LPS-induced septic mice [2]; septic animals): milder than those in the model group
ejection fraction (EF) (LPS-induced septic mice [3]): significantly improved
fractional shortening (FS) (LPS-induced septic mice [3]): significantly higher
ejection fraction (EF) (LPS-induced septic mice [3]; listed as STV-Na): markedly increased
fractional shortening (FS) (LPS-induced septic mice [3]; listed as STV-Na): markedly increased
CO (LPS-induced septic mice [3]; [14]): markedly increased
SV (LPS-induced septic mice [3]; [14]): markedly increased
M1 peritoneal macrophages (F4/80+CD11c+ CD206−) [4]: significantly inhibit; also recorded: significantly reduced
M2 peritoneal macrophages (F4/80+CD11c− CD206+) [4]: significantly inhibit; also recorded: significantly reduced
level of white blood cells, neutrophils and monocytes [5]: significantly reduced
alanine aminotransferase (ALT) in plasma (LPS-induced septic mice [6]; LPS-induced septic mice): significantly decreased
aspartate aminotransferase (AST) in plasma (LPS-induced septic mice [6]; LPS-induced septic mice): significantly decreased
superoxide dismutase (SOD) in plasma (LPS-induced septic mice [6]; LPS-induced septic mice): significantly decreased
infiltration of inflammatory cells in liver (histopathological staining) (LPS-induced septic mice [6]; septic animals): reduced
survival of mice ([7]; 5 mg/kg i.p. 1 time/d for 3 days, then LPS 20 mg/kg i.p., no significant difference with the LPS group (p>0.05)): all mice in the 5 mg/kg compound A group died
improved the survival rate of mice ([7]; 10 mg/kg i.p. 1 time/d for 3 days, then LPS 20 mg/kg i.p.): 52%
improved the survival rate of mice ([7]; 20 mg/kg i.p. 1 time/d for 3 days, then LPS 20 mg/kg i.p.): 67%
survival rate of mice ([7]; 10-20 mg/kg, large dose of LPS i.p., up to more than two-thirds surviving): significantly improved
maximum blood concentration [8]: 20 µM
TNF-α, IL-1β and IL-6 in plasma (TNF-α, IL-6 and IL-1β): dose-dependently decreased
CK level in plasma [9]: significantly decreased
LDH level in plasma [9]: downward trend
LDH level in plasma ([9]; listed as STV-Na): significantly decreased
fibrosis and collagen deposition in the lungs, heart, liver, and kidney [10]: marked reduction
blood oxygen saturation (septic lung tissues): significantly increased
lung function / acute lung injury and failure caused by sepsis (septic lung tissues): significantly recovered
lung inflammation (septic lung tissues): significantly reduced
lung tissue structure (septic lung tissues): basically normal
HIF-1α expression (HIF-1α; after LPS injection): reduced
metabolic regulation effect on macrophages (HIF-1α; with DMOG, a competitive inhibitor of HIF-1α prolyl hydroxylase): abolished
EF50 (expiratory flow at 50% tidal volume) [11, 15]: significantly higher
TV (tidal volume) [11, 15]: significantly higher
airway reactivity (Penh) ([11]; septic mice): returned to normal

C=C1C[C@@]23CC[C@H]4[C@@](C)(CCC[C@@]4(C)C(=O)O)[C@@H]2CC[C@]1(O)C3 [Compound B, ENT13Hyrdoxyaur-16-EN-18-Oic acid]
mutagenicity [12]: mutagenic

C[C@@H]1C[C@H]2[C@@H]3CCC4=CC(=O)C=C[C@]4(C)[C@@]3(F)[C@@H](O)C[C@]2(C)[C@@]1(O)C(=O)CO [dexamethasone]
spleen/body weight ratio (LPS-induced septic mice [13]): significantly reduced
